In patent publication US10669261B2, “Heteroarylhydroxypyrimidinones as agonists of the APJ receptor” (BRISTOL-MYERS SQUIBB COMPANY, priority 2015, dated 2020):

target: T1, human APJ receptor (Homo sapiens, UniProt P35414); assay: Intracellular cAMP accumulation assay (APJ hcAMP, HTRF); format: cell-based; details: HEK293 cells stably expressing human APJ receptor; inhibition of forskolin-mediated cAMP production; stated at end of example; read-out: Human APJ cAMP Potency Range
T1 construct: expressed in transfected cells
T1 sequence (P35414 1-380): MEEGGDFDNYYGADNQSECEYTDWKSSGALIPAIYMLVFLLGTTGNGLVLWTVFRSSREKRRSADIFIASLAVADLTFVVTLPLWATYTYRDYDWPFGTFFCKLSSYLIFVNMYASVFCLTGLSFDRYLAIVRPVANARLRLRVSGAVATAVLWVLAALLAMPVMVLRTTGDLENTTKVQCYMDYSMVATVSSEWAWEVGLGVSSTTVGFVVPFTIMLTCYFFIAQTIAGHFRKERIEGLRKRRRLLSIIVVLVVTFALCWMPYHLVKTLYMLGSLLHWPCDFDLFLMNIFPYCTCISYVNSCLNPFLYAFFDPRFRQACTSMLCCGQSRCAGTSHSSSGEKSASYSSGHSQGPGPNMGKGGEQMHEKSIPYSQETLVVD
Procedure: Intracellular cAMP Accumulation Assay
HEK293 cells stably expressing human APJ receptor were used to assess the activity of compounds. Cultured cells were detached and resuspended in the cAMP Homogeneous Time-Resolved Fluorescence (HTRF) assay buffer (Cisbio cat; #62AM4PEJ). The assay was performed in 384-well assay plates (Perkin-Elmer; cat #6008289) according to assay protocol provided by the manufacturer. Serial dilutions of a compound together with assay buffer containing […] IBMX and 2 μM forskolin were added to each well containing 5,000 cells and incubated for 30 minutes at room temperature. Subsequently, cAMP D2 reagent was added in the lysis buffer followed by the EuK antibody (Cisbio; cat #62AM4PEJ) and incubated for 60 min. The fluorescence emission ratio was measured using fluorometer. The intracellular cAMP concentrations (compound-stimulated inhibition of forskolin-mediated cAMP production) were calculated by extrapolation from a standard curve using known cAMP concentrations. The EC50 values were obtained by fitting the data to a sigmoidal concentration-response curve with variable slope. The maximal achievable inhibition of forskolin-induced cAMP levels (Ymax) for each compound was expressed as relative percentage of inhibition attained using pyroglutamated apelin-13 ((Pyr1)apelin-13) peptide, which was set to 100%.
The examples disclosed below were tested in the APJ in vitro assays described above and were found having human APJ cyclic AMP (hcAMP) activity. The EC50 value of each compound is presented at the end of the example description.
The biological activity of the exemplified compounds of this invention determined by the assay described above is shown at the end of each example.

| EC50 | SMILES |
| --- | --- |
| 0.01 to 10 nM | CCCCc1nc(=O)c(-c2nnc(Cc3noc4ccccc34)o2)c(O)n1-c1c(C2CC2)cccc1C1CC1 [Example 27, 5-(5-(Benzo[d]isoxazol-3-ylmethyl)-1,3,4-oxadiazol-2-yl)-2-butyl-1-(2,6-dicyclopropylphenyl)-6-hydroxypyrimidin-4(1H)-one] |
| 10 to 100 nM | CCCCc1nc(=O)c(-c2nnc(Cc3noc4ccccc34)o2)c(O)n1-c1c(C#N)cccc1C#N [Example 28, 2-(5-(5-(Benzo[d]isoxazol-3-ylmethyl)-1,3,4-oxadiazol-2-yl)-2-butyl-6-hydroxy-4-oxopyrimidin-1 (4H)-yl)isophthalonitrile] |
| 10 to 100 nM | CCCCc1nc(=O)c(-c2nnc(Cc3ccc(Cl)cc3)o2)c(O)n1-c1c(OC2CC2)cccc1OC1CC1 [Example 29, 2-butyl-5-(5-(4-chlorobenzyl)-1,3,4-oxadiazol-2-yl)-1-(2,6-dicyclopropoxyphenyl)-6-hydroxypyrimidin-4(1H)-one] |
| 0.01 to 10 nM | CCCCc1nc(O)c(-c2cnn(Cc3ccccc3)c2)c(=O)n1-c1c(OC)cccc1OC [Example 31, 5-(1-benzyl-1H-pyrazol-4-yl)-2-butyl-3-(2,6-dimethoxyphenyl)-6-hydroxypyrimidin-4(3H)-one] |
| 0.01 to 10 nM | CCOCc1nc(=O)c(-c2nnc(Cc3noc4ccccc34)o2)c(O)n1-c1c(OC)cccc1OC [Example 33, 5-(5-(benzo[d]isoxazol-3-ylmethyl)-1,3,4-oxadiazol-2-yl)-1-(2,6-dimethoxyphenyl)-6-hydroxy-2-(ethoxymethyl)pyrimidin-4(1H)-one] |
| 0.01 to 10 nM | COc1cccc(OC)c1-n1c(CCC2CC2)nc(=O)c(-c2nnc(Cc3noc4ccccc34)o2)c1O [Example 42, 5-(5-(benzo[d]isoxazol-3-ylmethyl)-1,3,4-oxadiazol-2-yl)-2-(2-cyclopropylethyl)-1-(2,6-dimethoxyphenyl)-6-hydroxypyrimidin-4(1H)-one] |
| 0.01 to 10 nM | [2H]C([2H])([2H])Oc1cccc(OC([2H])([2H])[2H])c1-n1c(CCCC)nc(=O)c(-c2nnc(Cc3noc4ccccc34)o2)c1O [Example 48, 5-(5-(Benzo[d]isoxazol-3-ylmethyl)-1,3,4-oxadiazol-2-yl)-2-butyl-1-(2,6-di[^2H3]methoxyphenyl)-6-hydroxypyrimidin-4(1H)-one] |

same assay, conditions: Table 1; HEK293 cells stably expressing human APJ receptor; read-out: hAPJ cAMP EC50 Potency range

| EC50 | SMILES |
| --- | --- |
| 100 to 300 nM | CCCCc1nc(=O)c(-c2nnc(Cc3noc4ccccc34)o2)c(O)n1-c1c(OC(C)C)cccc1OC(C)C [Example 24, 5-[5-(1,2-benzoxazol-3-ylmethyl)-1,3,4-oxadiazol-2-yl]-1-[2,6-bis(propan-2-yloxy)phenyl]-2-butyl-6-hydroxy-1,4-dihydropyrimidin-4-one] |
| 0.01 to 10 nM | CCCCc1nc(=O)c(-c2nnc(Cc3csc(C)n3)o2)c(O)n1-c1c(OCC)cccc1OCC [Example 25, 2-butyl-1-(2,6-diethoxyphenyl)-6-hydroxy-5-{5-[(2-methyl-1,3-thiazol-4-yl)methyl]-1,3,4-oxadiazol-2-yl}-1,4-dihydropyrimidin-4-one] |
| 0.01 to 10 nM | CCCCc1nc(=O)c(-c2nnc(Cc3ccc(Cl)cc3)o2)c(O)n1-c1c(OCC)cccc1OCC [Example 26, 2-butyl-5-{5-[(4-chlorophenyl)methyl]-1,3,4-oxadiazol-2-yl}-1-(2,6-diethoxyphenyl)-6-hydroxy-1,4-dihydropyrimidin-4-one] |
| 0.01 to 10 nM | CCCCc1nc(=O)c(-c2nnc(Cc3noc4ccccc34)o2)c(O)n1-c1c(OC2CC2)cccc1OC1CC1 [Example 30, 5-[5-(1,2-benzoxazol-3-ylmethyl)-1,3,4-oxadiazol-2-yl]-2-butyl-1-(2,6-dicyclopropoxyphenyl)-6-hydroxy-1,4-dihydropyrimidin-4-one] |
| 0.01 to 10 nM | CCCCc1nc(O)c(-c2cnn(Cc3ccc(Cl)cc3)c2)c(=O)n1-c1c(OC)cccc1OC [Example 32, 2-butyl-5-{1-[(4-chlorophenyl)methyl]-1H-pyrazol-4-yl}-3-(2,6-dimethoxyphenyl)-6-hydroxy-3,4-dihydropyrimidin-4-one] |
| 0.01 to 10 nM | COc1cccc(OC)c1-n1c(COC(C)C)nc(=O)c(-c2nnc(Cc3noc4ccccc34)o2)c1O [Example 34, 5-[5-(1,2-benzoxazol-3-ylmethyl)-1,3,4-oxadiazol-2-yl]-1-(2,6-dimethoxyphenyl)-6-hydroxy-2-[(propan-2-yloxy)methyl]-1,4-dihydropyrimidin-4-one] |
| 0.01 to 10 nM | CCOCc1nc(=O)c(-c2nnc(Cc3noc4ccccc34)o2)c(O)n1-c1c(CC)cccc1CC [Example 35, 5-[5-(1,2-benzoxazol-3-ylmethyl)-1,3,4-oxadiazol-2-yl]-1-(2,6-diethylphenyl)-2-(ethoxymethyl)-6-hydroxy-1,4-dihydropyrimidin-4-one] |
| 0.01 to 10 nM | COc1cccc(OC)c1-n1c(COC(C)C)nc(=O)c(-c2nnc(Cc3ccc(Cl)cc3)o2)c1O [Example 36, 5-{5-[(4-chlorophenyl)methyl]-1,3,4-oxadiazol-2-yl}-1-(2,6-dimethoxyphenyl)-6-hydroxy-2-[(propan-2-yloxy)methyl]-1,4-dihydropyrimidin-4-one] |
| 0.01 to 10 nM | CCOCc1nc(=O)c(-c2nnc(Cc3ccc(Cl)cc3)o2)c(O)n1-c1c(CC)cccc1CC [Example 37, 5-{5-[(4-chlorophenyl)methyl]-1,3,4-oxadiazol-2-yl}-1-(2,6-diethylphenyl)-2-(ethoxymethyl)-6-hydroxy-1,4-dihydropyrimidin-4-one] |
| 0.01 to 10 nM | CCOCc1nc(=O)c(-c2nnc(Cc3ccc(Cl)c(F)c3)o2)c(O)n1-c1c(OC)cccc1OC [Example 38, 5-{5-[(4-chloro-3-fluorophenyl)methyl]-1,3,4-oxadiazol-2-yl}-1-(2,6-dimethoxyphenyl)-2-(ethoxymethyl)-6-hydroxy-1,4-dihydropyrimidin-4-one] |
| 10 to 100 nM | CCOCc1nc(=O)c(-c2nnc(Cc3csc(-c4ccccc4)n3)o2)c(O)n1-c1c(OC)cccc1OC [Example 39, 1-(2,6-dimethoxyphenyl)-2-(ethoxymethyl)-6-hydroxy-5-{5-[(2-phenyl-1,3-thiazol-4-yl)methyl]-1,3,4-oxadiazol-2-yl}-1,4-dihydropyrimidin-4-one] |
| 0.01 to 10 nM | CCOCc1nc(=O)c(-c2nnc(Cc3ccc(Cl)cc3)o2)c(O)n1-c1c(OC)cccc1OC [Example 40, 5-{5-[(4-chlorophenyl)methyl]-1,3,4-oxadiazol-2-yl}-1-(2,6-dimethoxyphenyl)-2-(ethoxymethyl)-6-hydroxy-1,4-dihydropyrimidin-4-one] |
| 0.01 to 10 nM | CC(C)OCc1nc(=O)c(-c2nnc(Cc3noc4ccccc34)o2)c(O)n1-c1c(C2CC2)cccc1C1CC1 [Example 41, 5-[5-(1,2-benzoxazol-3-ylmethyl)-1,3,4-oxadiazol-2-yl]-1-(2,6-dicyclopropylphenyl)-6-hydroxy-2-[(propan-2-yloxy)methyl]-1,4-dihydropyrimidin-4-one] |
| 0.01 to 10 nM | COc1cccc(OC)c1-n1c(CCC2CC2)nc(=O)c(-c2nnc(CN3CCCC3=O)o2)c1O [Example 43, 2-(2-cyclopropylethyl)-1-(2,6-dimethoxyphenyl)-6-hydroxy-5-{5-[(2-oxopyrrolidin-1-yl)methyl]-1,3,4-oxadiazol-2-yl}-1,4-dihydropyrimidin-4-one] |
| 0.01 to 10 nM | COc1cccc(OC)c1-n1c(CCC2CC2)nc(=O)c(-c2nnc(Cc3csc(C)n3)o2)c1O [Example 44, 2-(2-cyclopropylethyl)-1-(2,6-dimethoxyphenyl)-6-hydroxy-5-{5-[(2-methyl-1,3-thiazol-4-yl)methyl]-1,3,4-oxadiazol-2-yl}-1,4-dihydropyrimidin-4-one] |
| 0.01 to 10 nM | COc1cccc(OC)c1-n1c(CCC2CC2)nc(=O)c(-c2nnc(Cc3ccc(Cl)cc3)o2)c1O [Example 45, 5-{5-[(4-chlorophenyl)methyl]-1,3,4-oxadiazol-2-yl}-2-(2-cyclopropylethyl)-1-(2,6-dimethoxyphenyl)-6-hydroxy-1,4-dihydropyrimidin-4-one] |
| 0.01 to 10 nM | COc1cccc(OC)c1-n1c(CCC2CC2)nc(=O)c(-c2nnc(Cn3ccccc3=O)o2)c1O [Example 46, 2-(2-cyclopropylethyl)-1-(2,6-dimethoxyphenyl)-6-hydroxy-5-{5-[(2-oxo-1,2-dihydropyridin-1-yl)methyl]-1,3,4-oxadiazol-2-yl}-1,4-dihydropyrimidin-4-one] |
| 0.01 to 10 nM | COc1cccc(OC)c1-n1c(CCC2CC2)nc(=O)c(-c2nnc(CN3CCOCC3=O)o2)c1O [Example 47, 4-({5-[2-(2-cyclopropylethyl)-1-(2,6-dimethoxyphenyl)-6-hydroxy-4-oxo-1,4-dihydropyrimidin-5-yl]-1,3,4-oxadiazol-2-yl}methyl)morpholin-3-one] |
